Laboratory results taken from US12186283B2, “Bismuth-thiol compositions and methods of use” (Microbion Corporation, priority 2018, dated 2025).

Columns and labels:
Type in all cases: cell-based
Candida albicans = assay: Broth microdilution MIC, yeast (Example 13); settings: 24 hr
Candida glabrata = assay: Broth microdilution MIC, yeast (Example 13)
Candida krusei = assay: Broth microdilution MIC, yeast (Example 13)
Candida auris = assay: Broth microdilution MIC, yeast (Example 13)
Aspergillus spp. = assay: Broth microdilution MIC/MEC, mold (Example 13); settings: comparators, read time not given

MIC0 (complete inhibition) (Candida albicans; Candida albicans ATCC 90028, Susceptible): 0.25 µg/mL | MIC0 (complete inhibition) (Candida albicans; Candida albicans ATCC 204276, MICA-R): 0.25 µg/mL | MIC0 (complete inhibition) (Candida albicans; Candida albicans ATCC MYA-2732, FLU-R, VORI-I): 0.25 µg/mL | MIC0 (complete inhibition) (Candida albicans; Candida albicans MMX 7053, Susceptible): 0.12 µg/mL | MIC0 (complete inhibition) (Candida albicans; Candida albicans MMX 7067, FLU-R, VORI-R): 0.25 µg/mL | MIC0 (complete inhibition) (Candida albicans; Candida albicans MMX 7403, Susceptible): 0.25 µg/mL | MIC0 (complete inhibition) (Candida albicans; Candida albicans MMX 7424, CASP-R, MICA-R): 0.25 µg/mL | MIC0 (complete inhibition) (Candida albicans; Candida albicans MMX 7430, Susceptible): 0.25 µg/mL | MIC0 (complete inhibition) (Candida albicans; Candida albicans MMX 7437, FLU-I): 0.25 µg/mL | MIC0 (complete inhibition) (Candida albicans; Candida albicans MMX 7445, FLU-R, VORI-R): 0.12 µg/mL | MIC0 (complete inhibition) (Candida glabrata; Candida glabrata ATCC 90030, Susceptible): 0.25 µg/mL | MIC0 (complete inhibition) (Candida glabrata; Candida glabrata ATCC MYA-2950, Susceptible): 0.12 µg/mL | MIC0 (complete inhibition) (Candida glabrata; Candida glabrata MMX 7087, Susceptible): 0.12 µg/mL | MIC0 (complete inhibition) (Candida glabrata; Candida glabrata MMX 7093, FLU-R): 0.25 µg/mL | MIC0 (complete inhibition) (Candida glabrata; Candida glabrata MMX 7101, FLU-R): 0.25 µg/mL | MIC0 (complete inhibition) (Candida glabrata; Candida glabrata MMX 7103, CASP-R, MICA-R): 0.25 µg/mL | MIC0 (complete inhibition) (Candida glabrata; Candida glabrata MMX 7111, Susceptible): 0.25 µg/mL | MIC0 (complete inhibition) (Candida glabrata; Candida glabrata MMX 7285, CASP-R, MICA-R): 0.25 µg/mL | MIC0 (complete inhibition) (Candida glabrata; Candida glabrata MMX 7307, CASP-R, MICA-R, FLU-R): 0.25 µg/mL | MIC0 (complete inhibition) (Candida glabrata; Candida glabrata MMX 7549, Susceptible): 0.25 µg/mL | MIC0 (complete inhibition) (Candida krusei; C. krusei ATCC 6258, MICA-I): 0.5 µg/mL | MIC0 (complete inhibition) (Candida krusei; C. krusei ATCC 14243, Susceptible): 0.25 µg/mL | MIC0 (complete inhibition) (Candida krusei; C. krusei ATCC 96685, Susceptible): 0.5 µg/mL | MIC0 (complete inhibition) (Candida krusei; C. krusei MMX 7125, Susceptible): 0.5 µg/mL | MIC0 (complete inhibition) (Candida krusei; C. krusei MMX 7128, Susceptible): 0.5 µg/mL | MIC0 (complete inhibition) (Candida krusei; C. krusei MMX 7141, Susceptible): 0.25 µg/mL | MIC0 (complete inhibition) (Candida krusei; C. krusei MMX 7153, MICA-R): 0.5 µg/mL | MIC0 (complete inhibition) (Candida krusei; C. krusei MMX 7155, Susceptible): 0.25 µg/mL | MIC0 (complete inhibition) (Candida krusei; C. krusei MMX 7563, Susceptible): 0.5 µg/mL | MIC0 (complete inhibition) (Candida krusei; C. krusei MMX 9878, MICA-I, VORI-I): 0.5 µg/mL | MIC0 (complete inhibition) (Candida auris; C. auris MMX 9862, Susceptible): 0.25 µg/mL | MIC0 (complete inhibition) (Candida auris; C. auris MMX 9863, FLU-R, VORI-R): 0.12 µg/mL | MIC0 (complete inhibition) (Candida auris; C. auris MMX 9864, FLU-R, VORI-R): 0.25 µg/mL | MIC0 (complete inhibition) (Candida auris; C. auris MMX 9865, FLU-R, VORI-R): 0.25 µg/mL | MIC0 (complete inhibition) (Candida auris; C. auris MMX 9866, FLU-R, VORI-R): 0.5 µg/mL | MIC0 (complete inhibition) (Candida auris; C. auris MMX 9867, FLU-R, VORI-R): 0.5 µg/mL | MIC0 (complete inhibition) (Candida auris; C. auris MMX 9868, FLU-R, VORI-R): 0.25 µg/mL | MIC0 (complete inhibition) (Candida auris; C. auris MMX 9869, FLU-R, VORI-R): 1 µg/mL | MIC0 (complete inhibition) (Candida auris; C. auris MMX 9870, FLU-R, VORI-R): 1 µg/mL | MIC0 (complete inhibition) (Candida auris; C. auris MMX 9871, Susceptible): 1 µg/mL | MIC0 (complete inhibition) (Aspergillus spp.; A. flavus ATCC 22546): 1 µg/mL | MIC0 (complete inhibition) (Aspergillus spp.; A. flavus ATCC 204304): 1 µg/mL | MIC0 (complete inhibition) (Aspergillus spp.; A. flavus MMX 7935): 1 µg/mL | MIC0 (complete inhibition) (Aspergillus spp.; A. fumigatus ATCC 204305): 1 µg/mL | MIC0 (complete inhibition) (Aspergillus spp.; A. fumigatus ATCC MYA-3626): 1 µg/mL | MIC0 (complete inhibition) (Aspergillus spp.; A. fumigatus MMX 5934): 1 µg/mL | MIC0 (complete inhibition) (Aspergillus spp.; A. fumigatus MMX 5938): 1 µg/mL | MIC0 (complete inhibition) (Aspergillus spp.; A. fumigatus MMX 5939): 1 µg/mL | MIC0 (complete inhibition) (Aspergillus spp.; A. niger ATCC 29508): 0.25 µg/mL | MIC0 (complete inhibition) (Aspergillus spp.; A. terreus MMX 8229): 0.25 µg/mL
SMILES: C[C@@H]1[C@H](O)[C@@H](C)/C=C/C=C/C=C/C=C/C=C/C=C/C=C/[C@H](O[C@@H]2O[C@H](C)[C@@H](O)[C@H](N)[C@@H]2O)C[C@@H]2O[C@](O)(C[C@@H](O)C[C@@H](O)[C@H](O)CC[C@@H](O)C[C@@H](O)CC(=O)O[C@H]1C)C[C@H](O)[C@H]2C(=O)O [AMP B]
